{"source": "patent US10711007B2", "about": "“Selective inhibitors of protein arginine methyltransferase 5 (PRMT5)” (Prelude Therapeutics, Incorporated, priority 2018, dated 2020)", "key": {"[1]": {"test_system": "sDMA marks (SmD3me2s) in U-87 MG cells", "test": "Western blotting for symmetric di-methyl arginine (sDMA) marks in U-87 MG cells", "type": "cell-based", "settings": "Homo sapiens, 72 h; U-87 MG cell line, 3 days", "description": "Cell Treatment and Western Blotting for Detecting Symmetric Di-Methyl Arginine (sDMA) Marks\n(§1) Compound Titration and Cell Culture:\nCompounds were dissolved in DMSO to make 10 mM stock and 3-fold series dilutions were further conducted to make working stocks top at 1 mM. Granta-519 cells were maintained in PRMI 1640 (Corning Cellgro, Catalog #: 10-040-CV) supplemented with 10% v/v FBS (GE Healthcare, Catalog #: SH30910.03) and U-87 MG cells were maintained in DMEM (Corning Cellgro, Catalog #: 10-013-CV) with 10% FBS and 2 mM Glutamin (Corning Cellgro, Catalog #25005CV).\nTo determine enzyme inhibition IC50 values in Granta-519 and U-87 MG cells using Western Blot analysis. One day before experiment, Granta-519 cells were passaged to a density of 0.5×10^6 cells/ml. U-87 MG cells were trypsinized and 4×10^5 cells were seeded into 6-well plates and allow to grow overnight. The next day, Granta-519 cells were spun down at 1,500 rpm for 4 min, resuspend in fresh medium at 0.5×10^6 cells/ml and 3 mL of culture (1.5×10^6 cells) were seeded into 6 well plate. Eight-point, 3-fold serial dilutions of compound working stocks were added to cells (3 ul, 1:1,000 dilution, DMSO concentration was 0.1%; final top concentration at 1 uM) and incubated for 3 days. Cells incubated with DMSO was used as a vehicle control.\nCells were harvested 3 days later, resuspended in 15 uL PBS, lysed in 4% SDS, and homogenized by passing through homogenizer column (Omega Biotek, Catalog #: HCR003). Total protein concentrations were determined by BCA assay (ThermoFisher Scientific, Catalog #: 23225). Lysates were mixed with 5× Laemmli buffer and boiled for 5 min. Forty ug of total protein was separated on SDS-PAGE gels (Bio-Rad, catalog #: 4568083, 4568043), transferred to PVDF membrane, blocked with 5% dry milk (Bio-Rad, Catalog #: 1706404) in TBS with 0.1% v/v Tween 20 (TBST) for 1 hour at room temperature (RT), and incubated with primary antibodies (sDMA: Cell signaling, Catalog #: 13222, 1:3,000; β-Actin: sigma, Catalog #: 1:5,000) in 5% dry milk in TBST at 4° C. overnight. The next day, membranes were washed with TBST, 5×5 min, and incubated with HRP conjugated seconded antibody (GE Healthcare; Catalog #: NA934-1ML, NA931-1ML; 1:5,000) for 2 hours at RT, followed by 5×5 min washes with TBST, and incubation with ECL substrates (Bio-Rad, Catalog #: 1705061, 1705062). Chemiluminescent signal was captured with Fluochem HD2 imager (Proteinsimple). SmD3me2s bands were quantified by ImageJ. Signals were normalized to β-Actin and DMSO control. IC50 values were calculated using Graphpad Prism ([Inhibitor] vs. normalized response-Variable slope)."}, "[2]": {"test_system": "sDMA (SmD3me2s) in human PBMCs", "test": "Western blotting for sDMA in PHA-L activated human PBMCs", "type": "cell-based", "settings": "PBMC, 72 h, 3 days", "description": "as §1\nCompounds were dissolved in DMSO to make 10 mM stock solutions. Human peripheral blood mononuclear cells (PBMCs) from healthy donors were purchased from AllCells (Emeryville, Calif.), maintained in RPMI 1640 (Corning Cellgro, Catalog #: 10-040-CV) supplemented with 10% v/v heat-inactivated FBS (GE Healthcare, Catalog #: SH30910.03), 2 mM L-Glutamine (Corning Cellgro, Catalog #25005CV) and 1× Penicillin-Streptomycin (Sigma-Aldrich, Catalog # P4333) in a CO2 incubator (5% CO2) at 37° C.\nTo Determine Enzyme Inhibition IC50 Values in Human PBMCs:\nFreshly thawed cells were seeded at a density of 25×10^5 cells/ml in 2 ml of media in a 12 well plate. Cells were activated by addition of 5 μg/ml PHA-L (Sigma-Aldrich, Catalog # L4144) for 3 days. A series of 8-point, 3-fold dilutions of compound were dispensed into wells from 1 mM stock solution using TECAN digital dispenser (D300e) and concentration of DMSO was normalized to 0.1%. […]\nCells were harvested 3 days later, resuspended in 15 μL PBS, lysed in 4% SDS, and homogenized by passing through homogenizer column (Omega Biotek, Catalog #: HCR003). Total protein concentration were determined by BCA assay (ThermoFisher Scientific, Catalog #: 23225). […] SmD3me2s bands were quantified by ImageJ. […] IC50 values were calculated using Graphpad Prism ([Inhibitor] vs. normalized response-Variable slope)."}}, "data": [{"smiles": "Nc1ncnc2c1ccn2[C@@H]1O[C@H]([C@@H]2OCc3ccc(Cl)cc32)[C@@H](O)[C@H]1O", "note": "[Example 5, (2R,3R,4S,5S)-2-(4-amino-7H-pyrrolo[2,3-d]pyrimidin-7-yl)-5-((R)-6-chloro-1,3-dihydroisobenzofuran-1-yl)tetrahydrofuran-3,4-diol]", "values": [{"measurement": "IC50", "setting": "[1]", "value": 0.025, "unit": "µM"}, {"measurement": "IC50", "setting": "[2]", "value": 0.016, "unit": "µM"}]}]}
